This test deals with T1, human LPA1 (Homo sapiens, UniProt Q92633).
T1 construct: the full-length cDNA for human LPA1 was obtained by PCR of the reverse transcription reaction; expressed in transfected cells
T1 sequence (Q92633 whole entry): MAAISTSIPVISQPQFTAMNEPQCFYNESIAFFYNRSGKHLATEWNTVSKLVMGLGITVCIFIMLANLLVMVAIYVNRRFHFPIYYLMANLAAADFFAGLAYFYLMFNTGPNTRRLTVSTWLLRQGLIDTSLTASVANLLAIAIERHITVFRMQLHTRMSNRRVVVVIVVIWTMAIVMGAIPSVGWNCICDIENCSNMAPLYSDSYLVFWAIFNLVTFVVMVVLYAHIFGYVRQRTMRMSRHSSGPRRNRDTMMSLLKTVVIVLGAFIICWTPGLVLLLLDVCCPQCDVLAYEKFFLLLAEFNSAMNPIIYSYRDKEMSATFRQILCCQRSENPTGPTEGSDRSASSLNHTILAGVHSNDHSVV
The test can be described thus: LPA1 calcium flux assay. Conditions: CHO cells expressing human LPA1, stimulated with 10 nM LPA; read-out: HLPA1 Ca Flux IC50. Type of test: cell-based. An outline of the steps:
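CHO cells stably expressing cloned human LPA1, serum-starved overnight, loaded with Calcium 4 dye 1 h at 37 °C in HBSS/20 mM Hepes with 0.3% fatty-acid-free HSA. Compounds preincubated 30 min at room temperature, then cells stimulated with 10 nM LPA; intracellular Ca2+ read by fluorescence. IC50 from titration curves.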
In the case of `Cc1noc(-c2ccc(-c3ccc(C4(C(=O)O)CC4)cc3)cc2)c1CNC(=O)C(C)Oc1ccccc1` (stereo not shown) [Compound 1-100, 1-(4′-{3-Methyl-4-[(2-phenoxy-propionylamino)-methyl]-isoxazol-5-yl}-biphenyl-4-yl)-cyclopropanecarboxylic acid], the IC50 lay within 300 to 1000 nM.

As for `Cc1noc(-c2ccc(-c3ccc(C4(C(=O)O)CC4)cc3)cc2)c1COCc1ccccc1Cl` [Compound 1-46, 1-{4′-[4-(2-Chloro-benzyloxymethyl)-3-methyl-isoxazol-5-yl]-biphenyl-4-yl}-cyclopropanecarboxylic acid], the IC50 was 1000 to 50000 nM.

`COc1cccc(SCC(O)c2c(C)noc2-c2ccc(-c3ccc(C4(C(=O)NS(C)(=O)=O)CC4)cc3)cc2)c1` (stereo not shown) [Compound 2-14, N-[1-(4′-{4-[1-Hydroxy-2-(3-methoxy-phenylsulfanyl)-ethyl]-3-methyl-isoxazol-5-yl}-biphenyl-4-yl)-cyclopropanecarbonyl]-methanesulfonamide]: the IC50 lay within 300 to 1000 nM.

In the case of `Cc1noc(-c2ccc(-c3ccccc3CCC(=O)O)cc2)c1C(O)CCCc1ccccc1` (stereo not shown) [Compound 1-201, 3-{4′-[4-(1-Hydroxy-4-phenyl-butyl)-3-methyl-isoxazol-5-yl]-biphenyl-2-yl}-propionic acid], the IC50 lay in the range of 1000 to 50000 nM.

For `Cc1noc(-c2ccc(-c3ccc(C4(C(=O)O)CC4)cc3)cc2)c1CCC(=O)N(C)Cc1ccccc1F` [Compound 1-44, 1-[4′-(4-{2-[(2-Fluoro-benzyl)-methyl-carbamoyl]-ethyl}-3-methyl-isoxazol-5-yl)-biphenyl-4-yl]-cyclopropanecarboxylic acid], the half-maximal inhibitory concentration (IC50) is less than 300 nM.

For `Cc1noc(-c2ccc(-c3ccc(C4(C(=O)O)CC4)cc3)cc2)c1CNCC1CC1` [Compound 1-27, 1-(4′-{4-[(Cyclopropylmethyl-amino)-methyl]-3-methyl-isoxazol-5-yl}-biphenyl-4-yl)-cyclopropanecarboxylic acid], the half-maximal inhibitory concentration (IC50) is 1000 to 50000 nM.

As for `Cc1noc(-c2ccc(-c3ccc(C4(C(=O)O)CC4)cc3)cc2)c1Nc1cccc(O)n1` [Compound 1-302, 1-{4′-[4-(6-Hydroxy-pyridin-2-ylamino)-3-methyl-isoxazol-5-yl]-biphenyl-4-yl}-cyclopropanecarboxylic acid], the IC50 is 1000 to 50000 nM.

Take `Cc1noc(-c2ccc(-c3cccc(C(=O)O)c3)cc2)c1NC(=O)NCc1ccccc1` [Compound 1-2, 4′-[4-(3-Benzyl-ureido)-3-methyl-isoxazol-5-yl]-biphenyl-3-carboxylic acid]: the IC50 was in the range of 1000 to 50000 nM.

Take `CCN(Cc1c(C)noc1-c1ccc(-c2ccc(C3(C(=O)O)CC3)cc2)cc1)C[C@H](C)c1ccccc1` [Compound 1-104, 1-[4′-(4-{[Ethyl-((R)-2-phenyl-propyl)-amino]-methyl}-3-methyl-isoxazol-5-yl)-biphenyl-4-yl]-cyclopropanecarboxylic acid]: the IC50 is less than 300 nM.

`Cc1ccc2nc(NCc3c(C)noc3-c3ccc(-c4ccc(C5(C(=O)O)CC5)cc4)cc3)sc2c1` [Compound 1-195, 1-(4′-{3-Methyl-4-[(6-methyl-benzothiazol-2-ylamino)-methyl]-isoxazol-5-yl}-biphenyl-4-yl)-cyclopropanecarboxylic acid]: the IC50 was in the range of 1000 to 50000 nM.

With `Cc1noc(-c2ccc(-c3ccc(C4(CC(=O)O)CC4)cc3)cc2)c1NC(C)CCCO` (stereo not shown) [Compound 1-229, (1-{4′-[4-(4-Hydroxy-1-methyl-butylamino)-3-methyl-isoxazol-5-yl]-biphenyl-4-yl}-cyclopropyl)-acetic acid], the half-maximal inhibitory concentration (IC50) is greater than 50000 nM.

For the compound `Cc1noc(-c2ccc(-c3ccc([C@H]4C[C@H]4C(=O)O)cc3)cc2)c1CSCCc1ccccc1` (single isomer, unassigned) [Compound 1-150, (cis)-2-[4′-(3-Methyl-4-phenethylsulfanylmethyl-isoxazol-5-yl)-biphenyl-4-yl]-cyclopropanecarboxylic acid], the IC50 was in the range of 1000 to 50000 nM.

As for `Cc1noc(-c2ccc(-c3ccc(C4(C(=O)O)CC4)cc3)cc2)c1NC(CCc1ccccc1)c1ccccc1` (stereo not shown) [Compound 1-214, 1-{4′-[4-(1,3-Diphenyl-propylamino)-3-methyl-isoxazol-5-yl]-biphenyl-4-yl}-cyclopropanecarboxylic acid], the IC50 was 300 to 1000 nM.

Consider `Cc1noc(-c2ccc(-c3ccc(C4(C(=O)O)CC4)cc3)cc2)c1COC(=O)N[C@H](C)c1ccccc1` [Compound 1-19, 1-{4′-[3-Methyl-4-((R)-1-phenyl-ethylcarbamoyloxymethyl)-isoxazol-5-yl]-biphenyl-4-yl}-cyclopropanecarboxylic acid], for which the IC50 was less than 300 nM.

With `Cc1noc(-c2ccc(-c3cccc(CCC(=O)O)c3)cc2)c1C(O)CCCc1ccccc1` (stereo not shown) [Compound 1-200, 3-{4′-[4-(1-Hydroxy-4-phenyl-butyl)-3-methyl-isoxazol-5-yl]-biphenyl-3-yl}-propionic acid], the IC50 is less than 300 nM.

As for `CC(=O)NC(CCCc1ccccc1)c1c(C)noc1-c1ccc(-c2ccc(C3(CC(=O)O)CC3)cc2)cc1` (stereo not shown) [Compound 1-256, (1-{4′-[4-(1-Acetylamino-4-phenyl-butyl)-3-methyl-isoxazol-5-yl]-biphenyl-4-yl}-cyclopropyl)-acetic acid], the 50% inhibitory concentration (IC50) lay in the range of 1000 to 50000 nM.

`Cc1noc(-c2ccc(-c3ccc(CCC(=O)O)cc3)cc2)c1NC(C)CCc1cccc(Cl)c1` (stereo not shown) [Compound 1-193, 3-(4′-{4-[3-(3-Chloro-phenyl)-1-methyl-propylamino]-3-methyl-isoxazol-5-yl}-biphenyl-4-yl)-propionic acid]: the IC50 is less than 300 nM.

With `Cc1noc(-c2ccc(-c3ccc(C4(C(=O)O)CC4)cc3)cc2)c1CCC(=O)N(C)C(C)c1ccccc1` (stereo in doubt) [Compound 1-117, 1-[4′-(3-Methyl-4-{2-[methyl-((R)-1-phenyl-ethyl)-carbamoyl]-ethyl}-isoxazol-5-yl)-biphenyl-4-yl]-cyclopropanecarboxylic acid], the half-inhibitory concentration (IC50) lay in the range of 1000 to 50000 nM.

For `Cc1noc(-c2ccc(-c3ccc(C4(C(=O)O)CC4)cc3)cc2)c1CNC(=O)CCc1ccccc1` [Compound 1-60, 1-(4′-{3-Methyl-4-[(3-phenyl-propionylamino)-methyl]-isoxazol-5-yl}-biphenyl-4-yl)-cyclopropanecarboxylic acid], the 50% inhibitory concentration (IC50) fell in the range of 1000 to 50000 nM.

With `Cc1noc(-c2ccc(-c3ccc(C4(C(=O)O)CC4)cc3)cc2)c1Nc1cccc(OC(C)C)[n+]1[O-]` [Compound 1-309, 1-{4′-[4-(6-Isopropoxy-1-oxy-pyridin-2-ylamino)-3-methyl-isoxazol-5-yl]-biphenyl-4-yl}-cyclopropanecarboxylic acid], the IC50 fell in the range of 1000 to 50000 nM.

Take `Cc1noc(-c2ccc(-c3ccc(CC(=O)O)cc3)cc2)c1CS(=O)(=O)CCc1ccccc1` [Compound 1-109, {4′-[3-Methyl-4-(2-phenyl-ethanesulfonylmethyl)-isoxazol-5-yl]-biphenyl-4-yl}-acetic acid]: the IC50 was 1000 to 50000 nM.

Consider `CCCCCCCCCCCCOc1cccc(Nc2c(C)noc2-c2ccc(-c3ccc(C4(C(=O)O)CC4)cc3)cc2)n1` [Compound 1-303, 1-{4′-[4-(6-Dodecyloxy-pyridin-2-ylamino)-3-methyl-isoxazol-5-yl]-biphenyl-4-yl}-cyclopropanecarboxylic acid], for which the IC50 was 1000 to 50000 nM.
